# Assay: Cytotoxicity in HFF cells (CellTiter-Glo), concurrent with HCMV assay
# Type: cell-based
# Conditions: human
# Method: Human foreskin fibroblast (HFF) cells prepared from human foreskin tissue were obtained from the University of Alabama at Birmingham tissue procurement facility with approval from its IRB. The tissue was incubated at 4° C. for 4 h in Clinical Medium consisting of minimum essential media (MEM) with Earl's salts supplemented with 10% fetal bovine serum (FBS) (Hyclone, Inc. Logan UT), L-glutamine, fungizone, and vancomycin. Tissue was then placed in phosphate buffered saline (PBS), minced, rinsed to remove the red blood cells, and resuspended in trypsin/EDTA solution. The tissue suspension was incubated at 37° C. and gently agitated to disperse the cells, which were collected by centrifugation. Cells were resuspended in 4 ml Clinical Medium and placed in a 25 cm^2 flask and incubated at 37° C. in a humidified CO2 incubator for 24 h. The media was then replaced with fresh Clinical Medium and the cell growth was monitored daily until a confluent monolayer had formed. The HFF cells were then expanded through serial passages in standard growth medium of MEM with Earl's salts supplemented with 10% FBS, L-glutamine, penicillin, and gentamycin. The cells were passaged routinely and used for assays at or below passage ^10.37,38
# Each experiment that evaluates the antiviral activity of compounds includes both positive and negative control compounds to ensure the performance of each assay. Concurrent assessment of cytotoxicity was also performed for each study in the same cell line and with the same compound exposure.
# Assays were performed in monolayers as described.37 Cells were seeded in 384 well plates and incubated for 24 h to allow the formation of confluent monolayers. Dilutions of test drug were prepared directly in the plates and the monolayers infected at a predetermined MOI based on virus used. After incubation, cytopathology was determined by the addition of CellTiter-Glo (CTG) reagent. Concentrations of test compound sufficient to reduce CPE by 50% (EC50) or decrease cell viability by 50% (CC50) were interpolated using standard methods in Microsoft Excel. Toxicity was measured using CTG as above.
compound,measurement,value
"CC(C)C(=O)OCC1=C[C@@H](O)[C@H](n2ccc(N)nc2=O)O1 [Compound 8, 3′-Deoxy-3′,4′-didehydro-5′-O-isobutyroyl-cytidine]",CC50,> 50 µM
